Assay [1] concerns the target Receptor tyrosine-protein kinase erbB-2 (Homo sapiens, UniProt P04626). The assay is described as follows: Inhibition of HER2 overexpressed in mouse 3T3 cells by ELISA. The format is cell-based, NIH3T3. Conditions: for Activity: NIH3T3.
Assay [2] can be described thus: Binding affinity to neurotensin receptor.
For assay [3], the target named is Human immunodeficiency virus type 1 integrase (Human immunodeficiency virus 1) (UniProt Q7ZJM1). Nature of the assay: Inhibition of HIV1 integrase at 1 ug/ml by scintillation proximity assay. (SPA uses beads or plates that emit light when radiolabelled molecules are held near them.)
Human immunodeficiency virus type 1 integrase (Human immunodeficiency virus 1), sequence (Q7ZJM1 as listed by the source): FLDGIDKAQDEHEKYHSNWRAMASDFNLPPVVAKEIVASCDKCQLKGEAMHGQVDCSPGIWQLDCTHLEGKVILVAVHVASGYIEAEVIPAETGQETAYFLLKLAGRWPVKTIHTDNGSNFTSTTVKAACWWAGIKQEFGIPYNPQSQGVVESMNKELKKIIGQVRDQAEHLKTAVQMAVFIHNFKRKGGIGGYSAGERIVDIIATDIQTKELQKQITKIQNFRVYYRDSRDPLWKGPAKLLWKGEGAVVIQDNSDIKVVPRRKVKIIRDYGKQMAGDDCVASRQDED
For assay [4] the target is unchanged. The assay is described as follows: Inhibition of HIV1 integrase at 5 ug/ml by scintillation proximity assay.
Assay [5] deals with T1, VIP peptides (Homo sapiens) (UniProt P01282).
T1 sequence (whole entry): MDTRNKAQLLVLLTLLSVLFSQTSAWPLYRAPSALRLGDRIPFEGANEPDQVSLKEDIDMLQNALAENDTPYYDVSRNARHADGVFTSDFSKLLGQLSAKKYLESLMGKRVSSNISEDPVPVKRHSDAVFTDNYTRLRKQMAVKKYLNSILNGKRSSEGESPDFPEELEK
Nature of the assay: Binding affinity to vasoactive intestinal peptide.

The target in assay [6] is T2, Neuropeptide Y receptor type 1 (Rattus norvegicus) (UniProt P21555).
T2 sequence (whole entry): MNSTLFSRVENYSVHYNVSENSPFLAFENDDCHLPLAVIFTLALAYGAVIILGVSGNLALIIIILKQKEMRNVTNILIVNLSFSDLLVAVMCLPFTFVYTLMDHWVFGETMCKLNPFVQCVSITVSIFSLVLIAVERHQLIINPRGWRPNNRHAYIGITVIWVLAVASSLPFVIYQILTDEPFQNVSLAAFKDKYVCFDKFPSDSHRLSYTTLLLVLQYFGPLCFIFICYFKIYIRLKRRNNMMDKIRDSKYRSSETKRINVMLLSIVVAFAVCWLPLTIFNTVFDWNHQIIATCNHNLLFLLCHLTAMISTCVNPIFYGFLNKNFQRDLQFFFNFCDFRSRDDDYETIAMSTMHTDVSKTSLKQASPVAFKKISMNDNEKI
The assay is described as follows: (§1) Displacement of [3H]NPY from neuropeptide Y receptor in rat cerebral cortices.

Assay [7] in a line: Binding affinity to galanin receptor.
For a further assay, the species on record is Rattus norvegicus. Nature of the assay: Displacement of radioiodinated somatostatins from rat somatostatin receptor.
Assay [8] has as its target T3, Neuromedin-K receptor (Homo sapiens) (UniProt P29371).
T3 sequence (whole entry): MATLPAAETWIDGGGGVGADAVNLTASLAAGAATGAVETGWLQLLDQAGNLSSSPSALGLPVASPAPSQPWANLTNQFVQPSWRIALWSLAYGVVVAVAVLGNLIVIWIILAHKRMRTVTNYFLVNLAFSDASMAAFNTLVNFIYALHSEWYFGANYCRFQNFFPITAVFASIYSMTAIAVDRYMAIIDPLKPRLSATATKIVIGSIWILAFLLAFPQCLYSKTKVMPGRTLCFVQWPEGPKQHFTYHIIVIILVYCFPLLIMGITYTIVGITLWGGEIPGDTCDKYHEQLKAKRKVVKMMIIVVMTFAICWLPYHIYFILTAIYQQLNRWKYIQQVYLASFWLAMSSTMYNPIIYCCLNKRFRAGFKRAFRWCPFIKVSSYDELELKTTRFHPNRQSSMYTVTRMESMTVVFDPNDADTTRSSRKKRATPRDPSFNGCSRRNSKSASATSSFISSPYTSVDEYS
The assay is described as follows: Binding affinity to NK3 receptor.

For assay [9], the target named is T4, B2 bradykinin receptor (Homo sapiens) (UniProt P30411).
T4 sequence (whole entry): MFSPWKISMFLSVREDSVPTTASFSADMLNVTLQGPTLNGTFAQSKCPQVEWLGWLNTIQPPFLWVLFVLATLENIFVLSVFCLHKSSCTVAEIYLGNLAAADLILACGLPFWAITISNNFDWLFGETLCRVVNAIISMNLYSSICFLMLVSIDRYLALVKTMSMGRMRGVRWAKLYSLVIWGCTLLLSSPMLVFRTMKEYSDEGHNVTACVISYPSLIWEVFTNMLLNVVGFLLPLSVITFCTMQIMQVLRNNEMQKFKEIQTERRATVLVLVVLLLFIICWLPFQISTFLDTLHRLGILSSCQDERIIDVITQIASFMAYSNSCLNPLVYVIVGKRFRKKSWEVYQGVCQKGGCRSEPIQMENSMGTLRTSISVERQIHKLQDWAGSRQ
The assay is described as follows: Displacement of [3H]bradykinin from human bradykinin B2 receptor expressed in baculovirus-infected SF21 cells.

Assay [10] concerns the target T5, Neuropeptide Y receptor type 1 (Rattus norvegicus, UniProt P21555).
T5 sequence (P21555 whole entry): T2 sequence (whole entry)
The description is as §1.

The structures appear in SMILES notation. Calls of active or inactive are those of the source. No cut-off for these calls is given here.

The IC50 is the concentration at which inhibition is half-maximal. Read a low IC50 as greater potency. In general, inhibition refers to the change of the read-out against control, counted positive when it falls.

Receptor tyrosine-protein kinase erbB-2, sequence (P04626 whole entry): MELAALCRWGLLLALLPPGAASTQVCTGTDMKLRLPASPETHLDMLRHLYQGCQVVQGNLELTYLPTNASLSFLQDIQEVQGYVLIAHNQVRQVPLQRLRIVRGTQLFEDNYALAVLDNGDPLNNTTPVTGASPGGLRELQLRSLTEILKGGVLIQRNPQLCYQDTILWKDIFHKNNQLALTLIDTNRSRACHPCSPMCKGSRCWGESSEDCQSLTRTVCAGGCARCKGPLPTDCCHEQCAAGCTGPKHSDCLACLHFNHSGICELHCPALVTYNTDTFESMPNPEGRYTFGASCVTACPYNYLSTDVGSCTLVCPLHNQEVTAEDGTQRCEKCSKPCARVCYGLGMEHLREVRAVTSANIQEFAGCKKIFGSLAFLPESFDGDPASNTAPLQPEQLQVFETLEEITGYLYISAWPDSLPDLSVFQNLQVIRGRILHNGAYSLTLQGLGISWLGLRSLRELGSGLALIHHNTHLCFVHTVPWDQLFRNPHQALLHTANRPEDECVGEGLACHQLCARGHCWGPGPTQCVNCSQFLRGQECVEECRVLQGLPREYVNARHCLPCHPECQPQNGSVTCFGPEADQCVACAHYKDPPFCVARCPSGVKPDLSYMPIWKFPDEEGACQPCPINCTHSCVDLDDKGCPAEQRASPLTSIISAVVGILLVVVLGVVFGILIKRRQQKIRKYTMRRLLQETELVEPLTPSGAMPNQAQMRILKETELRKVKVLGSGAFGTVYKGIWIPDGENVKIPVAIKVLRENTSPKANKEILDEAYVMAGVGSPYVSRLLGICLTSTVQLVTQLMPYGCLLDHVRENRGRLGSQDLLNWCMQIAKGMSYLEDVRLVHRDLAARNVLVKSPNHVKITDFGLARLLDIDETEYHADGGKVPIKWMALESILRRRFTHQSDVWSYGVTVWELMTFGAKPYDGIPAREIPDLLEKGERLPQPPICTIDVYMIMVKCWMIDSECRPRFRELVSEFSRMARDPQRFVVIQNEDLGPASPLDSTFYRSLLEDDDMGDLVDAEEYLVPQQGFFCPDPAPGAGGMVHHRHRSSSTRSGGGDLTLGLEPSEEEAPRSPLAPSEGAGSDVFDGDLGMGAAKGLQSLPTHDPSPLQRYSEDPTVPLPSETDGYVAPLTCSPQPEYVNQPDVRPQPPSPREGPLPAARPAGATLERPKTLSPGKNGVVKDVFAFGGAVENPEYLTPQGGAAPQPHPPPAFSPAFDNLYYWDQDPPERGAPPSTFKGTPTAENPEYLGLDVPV

Compound `CC(C)=CCC/C(C)=C/CC/C(C)=C/CC/C(C)=C/CC/C(C)=C/CC/C(C)=C/CC/C(C)=C/Cc1cc(OS(=O)(=O)O)ccc1O` showed a half-maximal inhibitory concentration (IC50) in assay [1] of 11.6 µM.
Take `CC(C)=CCC/C(C)=C/CC/C(C)=C/CC/C(C)=C/CC/C(C)=C/CC/C(C)=C/CCC1(C)C=Cc2cc(O)ccc2O1` (configuration not stated): the result in [2], in [3], in assay [4], in assay [5], in assay [6] and in assay [7] was inactive. Moreover, the outcome (in assay [1]; in the assay filed under Rattus norvegicus; in assay [8]; in assay [9]) was inactive.
The compound `CC(C)=CCC/C(C)=C/CC/C(C)=C/CC/C(C)=C/CC/C(C)=C/Cc1cc(OS(=O)(=O)O)ccc1O` showed an inhibition in [3] of 65%. Moreover, the IC50 in [10] is 91.9 µM; in assay [1], 14.5 µM.
Compound `CC(C)=CCC/C(C)=C/CC/C(C)=C/CC/C(C)=C/CC/C(C)=C/CC/C(C)=C/Cc1cc(OS(=O)(=O)O)ccc1O` showed a half-inhibitory concentration (IC50) in assay [1] of 6.44 µM.
With `CC(C)=CCC/C(C)=C/CC/C(C)=C/CC/C(C)=C/CC/C(C)=C/CCC1(C)C=Cc2cc(O)ccc2O1` (configuration not stated), the outcome in assay [2], in assay [3], in assay [4], in assay [5], in [6] and in assay [7] was inactive. Besides, the result (in assay [1]; in the assay filed under Rattus norvegicus; in assay [8]; in assay [9]) was inactive.
As to `CC(C)=CCC/C(C)=C/CC/C(C)=C/CC/C(C)=C/CC/C(C)=C/CC/C(C)=C/CC/C(=C/Cc1cc(O)ccc1O)CO`, the inhibition in [4] was 45%. In addition, in [1], the IC50 was 9.79 µM.
In the case of `CC(C)=CCC/C(C)=C/CC/C(C)=C/CC/C(C)=C/CCC1(C)C=Cc2cc(O)ccc2O1` (configuration not stated), the outcome in assay [2], in assay [3], in [4], in [5], in [6] and in [7] was inactive. The outcome (in assay [1]; in the assay filed under Rattus norvegicus; in assay [8]; in assay [9]) was inactive.

Values taken from ChEMBL document CHEMBL1159294, “Bioactive Prenylhydroquinone Sulfates and a Novel C 31 Furanoterpene Alcohol Sulfate from the Marine Sponge, Ircinia Sp” (J Nat Prod, 1995).
